# Article PMC9191647 (Neuropharmacology, 2019)
# Where “and” joins values, the source holds several entries; their conditions need not be identical. Equal entries are not always repeated. Where two headings read alike, the source gives them in different places.
# What was measured:
# male C57BL/6J mice [1] = assay: Head-twitch response; assay type: in vivo, mouse; details: for HTR induced by ALD-52 after M100,907 pretreatment: 0.1 mg/kg M100,907 SC pretreatment, then 0.3 mg/kg ALD-52; for HTR Counts (mean ± SEM): 30 min session; for ED50: Mus musculus
# human subjects = details: humans, cited from earlier work; for active doses: ref Rothlin (1957)
# human 5-HT2A (h5-HT2A) = human 5-HT2A (h5-HT2A) (Homo sapiens, UniProt P28223); assay: Gq-mediated calcium flux in Flp-In T-REx 293 cells; assay type: cell-based; details: for Emax % 5-HT: percent 5-HT maximum response; for EC50: Ca^2+ flux
# male C57BL/6J mice [2] = details: HTR, cited from earlier work; for ED50 μg/kg (95% CI): hemitartrate (2:1) salt
# mouse 5-HT2A (m5-HT2A) = mouse 5-HT2A (m5-HT2A) (Mus musculus, UniProt P35363); assay: Gq-mediated calcium flux in Flp-In T-REx 293 cells; assay type: cell-based; details: for Emax % 5-HT: percent 5-HT maximum response
# human 5-HT2B (h5-HT2B) = human 5-HT2B (h5-HT2B) (Homo sapiens, UniProt P41595); assay: Gq-mediated calcium flux in Flp-In T-REx 293 cells; assay type: cell-based; details: for agonist activity: Ca^2+ flux
# [3] = cited from earlier work
# human 5-HT2C receptor = molecular target: T1, human 5-HT2C receptor (Homo sapiens, UniProt P28335); assay: biochemical; assay type: binding
# T1 sequence (P28335 33-458): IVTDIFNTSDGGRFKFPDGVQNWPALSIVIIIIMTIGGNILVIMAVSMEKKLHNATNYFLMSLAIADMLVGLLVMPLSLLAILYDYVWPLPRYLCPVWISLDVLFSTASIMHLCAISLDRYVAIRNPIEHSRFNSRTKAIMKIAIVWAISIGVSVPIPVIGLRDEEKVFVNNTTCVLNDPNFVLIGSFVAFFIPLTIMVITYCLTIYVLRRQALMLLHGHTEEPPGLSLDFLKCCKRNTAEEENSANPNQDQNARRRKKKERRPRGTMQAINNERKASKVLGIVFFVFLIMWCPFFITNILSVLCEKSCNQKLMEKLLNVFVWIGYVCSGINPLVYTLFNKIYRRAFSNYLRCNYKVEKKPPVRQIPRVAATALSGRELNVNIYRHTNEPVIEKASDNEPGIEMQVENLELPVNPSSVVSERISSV
# human 5-HT2A receptor = human 5-HT2A receptor (Homo sapiens, UniProt P28223); assay: Competitive radioligand binding
# [4] = molecular target: T2, human 5-HT2C INI (h5-HT2C) (Homo sapiens, UniProt P28335); assay type: cell-based
# T2 sequence (P28335 33-458): T1 sequence (P28335 33-458)
# human 5-HT1A receptor = molecular target: T3, human 5-HT1A receptor (Homo sapiens, UniProt P08908); assay: Competitive radioligand binding; details: for fold lower affinity than LSD for the 5-HT1A receptor: human 5-HT1A, relative to LSD
# T3 sequence (P08908 1-422): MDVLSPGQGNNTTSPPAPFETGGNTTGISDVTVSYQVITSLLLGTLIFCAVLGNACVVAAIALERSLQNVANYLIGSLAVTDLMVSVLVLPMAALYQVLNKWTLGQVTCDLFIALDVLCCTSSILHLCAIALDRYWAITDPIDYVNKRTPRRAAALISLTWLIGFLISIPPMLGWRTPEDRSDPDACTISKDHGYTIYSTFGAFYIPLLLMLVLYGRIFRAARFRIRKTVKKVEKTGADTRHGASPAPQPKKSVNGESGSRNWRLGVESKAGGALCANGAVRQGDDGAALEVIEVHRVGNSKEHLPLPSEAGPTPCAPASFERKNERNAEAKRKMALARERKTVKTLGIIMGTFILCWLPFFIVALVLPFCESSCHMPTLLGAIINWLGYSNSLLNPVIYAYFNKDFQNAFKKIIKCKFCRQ
# β2 = β2 (Homo sapiens, UniProt P07550); assay: Competitive radioligand binding
# 5-HT1D = 5-HT1D (Homo sapiens, UniProt P28221); assay: Competitive radioligand binding
# H2 = H2 (Homo sapiens, UniProt P25021); assay: Competitive radioligand binding
# α1B = α1B (Homo sapiens, UniProt P35368); assay: Competitive radioligand binding
# 5-HT1B = 5-HT1B (Homo sapiens, UniProt P28222); assay: Competitive radioligand binding
# H1 = H1 (Homo sapiens, UniProt P35367); assay: Competitive radioligand binding
# α2B = α2B (Homo sapiens, UniProt P18089); assay: Competitive radioligand binding
# 5-HT2B = 5-HT2B (Homo sapiens, UniProt P41595); assay: Competitive radioligand binding
# α2A = α2A (Homo sapiens, UniProt P08913); assay: Competitive radioligand binding
# 5-HT6 = 5-HT6 (Homo sapiens, UniProt P50406); assay: Competitive radioligand binding
# 5-HT7A = 5-HT7A (Homo sapiens, UniProt P34969); assay: Competitive radioligand binding
# H4 = H4 (Homo sapiens, UniProt Q9H3N8); assay: Competitive radioligand binding
# α1D = α1D (Homo sapiens, UniProt P25100); assay: Competitive radioligand binding
# β3 = β3 (Homo sapiens, UniProt P13945); assay: Competitive radioligand binding
# H3 = H3 (Cavia porcellus, UniProt Q9JI35); assay: Competitive radioligand binding; parameters: species or system Guinea pig
# 5-HT5a = 5-HT5a (Homo sapiens, UniProt P47898); assay: Competitive radioligand binding
# D1 = D1 (Homo sapiens, UniProt P21728); assay: Competitive radioligand binding
# β1 = β1 (Homo sapiens, UniProt P08588); assay: Competitive radioligand binding; parameters: species or system Human (heart)
# D3 = D3 (Homo sapiens, UniProt P35462); assay: Competitive radioligand binding
# α2C = α2C (Homo sapiens, UniProt P18825); assay: Competitive radioligand binding
# D4 = D4 (Homo sapiens, UniProt P21917); assay: Competitive radioligand binding
# α1A = α1A (Homo sapiens, UniProt P35348); assay: Competitive radioligand binding
# D2 = D2 (Homo sapiens, UniProt P14416); assay: Competitive radioligand binding
# D5 = D5 (Homo sapiens, UniProt P21918); assay: Competitive radioligand binding
# mice = details: quantal scoring; ref Corne and Pickering (1967); cited from earlier work
# 5-HT2A = details: ref Johnson et al., 1994, cited from earlier work; for Ki: human 5-HT2A receptor vs. [^3H] ketanserin
# [5] = ref Halberstadt and Geyer (2013)
# mouse 5-HT2A (m5-HT2A), sequence (P35363 whole entry): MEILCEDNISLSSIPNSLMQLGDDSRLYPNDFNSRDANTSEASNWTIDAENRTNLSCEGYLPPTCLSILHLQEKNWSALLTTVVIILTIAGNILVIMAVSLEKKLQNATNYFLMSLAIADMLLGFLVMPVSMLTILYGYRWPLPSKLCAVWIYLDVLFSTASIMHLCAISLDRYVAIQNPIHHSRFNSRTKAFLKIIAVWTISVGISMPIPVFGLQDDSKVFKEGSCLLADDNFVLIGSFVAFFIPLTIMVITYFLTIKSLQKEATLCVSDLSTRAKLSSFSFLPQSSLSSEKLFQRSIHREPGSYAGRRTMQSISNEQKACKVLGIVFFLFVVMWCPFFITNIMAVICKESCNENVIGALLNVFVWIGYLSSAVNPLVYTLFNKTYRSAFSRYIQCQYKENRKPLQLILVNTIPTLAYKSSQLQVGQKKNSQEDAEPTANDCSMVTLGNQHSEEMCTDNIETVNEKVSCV
# human 5-HT2A (h5-HT2A), sequence (P28223 whole entry): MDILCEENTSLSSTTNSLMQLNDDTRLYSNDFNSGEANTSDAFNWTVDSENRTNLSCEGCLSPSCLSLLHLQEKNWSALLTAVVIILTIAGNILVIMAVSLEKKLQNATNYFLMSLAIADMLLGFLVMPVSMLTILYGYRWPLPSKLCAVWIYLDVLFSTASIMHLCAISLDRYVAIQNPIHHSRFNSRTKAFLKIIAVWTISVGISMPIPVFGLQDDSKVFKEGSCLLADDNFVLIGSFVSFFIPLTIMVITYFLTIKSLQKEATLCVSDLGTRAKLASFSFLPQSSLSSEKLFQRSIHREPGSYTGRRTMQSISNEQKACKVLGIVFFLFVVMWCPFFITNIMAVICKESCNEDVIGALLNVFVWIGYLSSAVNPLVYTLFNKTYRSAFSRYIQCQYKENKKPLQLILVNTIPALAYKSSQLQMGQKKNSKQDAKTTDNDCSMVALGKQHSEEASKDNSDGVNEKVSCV
# human 5-HT2A receptor, sequence (P28223 whole entry): as above
# human 5-HT2B (h5-HT2B), sequence (P41595 whole entry): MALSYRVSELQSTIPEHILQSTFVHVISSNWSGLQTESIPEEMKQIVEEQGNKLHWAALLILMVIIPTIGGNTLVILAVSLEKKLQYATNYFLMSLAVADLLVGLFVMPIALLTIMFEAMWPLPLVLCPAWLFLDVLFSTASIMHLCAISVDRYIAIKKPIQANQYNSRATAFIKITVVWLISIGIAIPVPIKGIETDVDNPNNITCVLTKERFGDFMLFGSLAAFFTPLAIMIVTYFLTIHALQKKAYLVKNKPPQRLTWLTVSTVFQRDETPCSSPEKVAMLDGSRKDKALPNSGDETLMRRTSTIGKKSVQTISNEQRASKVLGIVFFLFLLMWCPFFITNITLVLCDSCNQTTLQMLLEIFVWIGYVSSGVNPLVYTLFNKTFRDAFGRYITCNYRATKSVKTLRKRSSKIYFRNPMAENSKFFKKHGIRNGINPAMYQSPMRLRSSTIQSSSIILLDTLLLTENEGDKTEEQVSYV
# 5-HT1B, sequence (P28222 whole entry): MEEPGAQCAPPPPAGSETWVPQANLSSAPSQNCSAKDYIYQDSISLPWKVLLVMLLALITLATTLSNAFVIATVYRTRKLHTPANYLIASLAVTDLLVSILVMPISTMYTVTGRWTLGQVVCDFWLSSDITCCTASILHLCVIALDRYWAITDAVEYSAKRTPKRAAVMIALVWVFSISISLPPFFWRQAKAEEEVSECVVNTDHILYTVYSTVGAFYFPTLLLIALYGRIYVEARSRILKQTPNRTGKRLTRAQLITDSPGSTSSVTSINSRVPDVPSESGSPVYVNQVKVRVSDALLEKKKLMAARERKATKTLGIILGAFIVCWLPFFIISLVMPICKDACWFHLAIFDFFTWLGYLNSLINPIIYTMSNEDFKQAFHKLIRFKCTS
# 5-HT1D, sequence (P28221 whole entry): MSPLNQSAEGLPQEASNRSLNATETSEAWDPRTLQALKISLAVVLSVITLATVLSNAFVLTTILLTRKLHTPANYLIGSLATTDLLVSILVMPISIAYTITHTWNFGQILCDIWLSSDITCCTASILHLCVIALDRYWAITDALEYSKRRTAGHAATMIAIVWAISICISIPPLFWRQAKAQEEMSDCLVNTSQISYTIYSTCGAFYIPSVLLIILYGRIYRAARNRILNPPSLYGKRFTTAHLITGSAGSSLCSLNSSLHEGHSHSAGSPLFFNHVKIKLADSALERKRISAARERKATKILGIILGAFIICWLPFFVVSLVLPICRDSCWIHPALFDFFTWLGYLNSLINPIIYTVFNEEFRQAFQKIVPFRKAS
# β1, sequence (P08588 whole entry): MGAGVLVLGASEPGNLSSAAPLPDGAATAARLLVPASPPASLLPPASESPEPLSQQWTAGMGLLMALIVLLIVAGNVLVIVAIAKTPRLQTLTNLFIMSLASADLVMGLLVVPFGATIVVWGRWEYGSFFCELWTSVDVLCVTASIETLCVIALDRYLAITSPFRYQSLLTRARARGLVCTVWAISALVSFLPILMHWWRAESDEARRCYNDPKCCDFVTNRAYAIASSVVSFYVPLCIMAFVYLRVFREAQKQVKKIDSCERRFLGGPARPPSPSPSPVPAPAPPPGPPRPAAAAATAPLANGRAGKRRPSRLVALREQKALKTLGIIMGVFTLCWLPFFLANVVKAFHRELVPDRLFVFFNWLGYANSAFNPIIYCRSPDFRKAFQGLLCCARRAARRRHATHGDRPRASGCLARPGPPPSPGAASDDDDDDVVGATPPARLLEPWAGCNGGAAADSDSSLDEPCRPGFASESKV
# α2C, sequence (P18825 whole entry): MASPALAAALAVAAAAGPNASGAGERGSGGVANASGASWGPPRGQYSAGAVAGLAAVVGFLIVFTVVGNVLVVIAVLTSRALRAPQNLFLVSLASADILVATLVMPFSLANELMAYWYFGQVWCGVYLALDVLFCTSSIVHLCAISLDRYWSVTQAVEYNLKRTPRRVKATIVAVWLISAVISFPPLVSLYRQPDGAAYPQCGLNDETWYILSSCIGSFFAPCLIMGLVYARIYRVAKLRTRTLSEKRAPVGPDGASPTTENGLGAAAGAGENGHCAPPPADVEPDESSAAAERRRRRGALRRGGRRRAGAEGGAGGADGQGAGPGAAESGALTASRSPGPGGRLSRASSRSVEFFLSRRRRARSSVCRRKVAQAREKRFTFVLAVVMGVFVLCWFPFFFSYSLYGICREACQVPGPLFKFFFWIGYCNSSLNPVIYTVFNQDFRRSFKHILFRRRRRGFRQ
# β3, sequence (P13945 whole entry): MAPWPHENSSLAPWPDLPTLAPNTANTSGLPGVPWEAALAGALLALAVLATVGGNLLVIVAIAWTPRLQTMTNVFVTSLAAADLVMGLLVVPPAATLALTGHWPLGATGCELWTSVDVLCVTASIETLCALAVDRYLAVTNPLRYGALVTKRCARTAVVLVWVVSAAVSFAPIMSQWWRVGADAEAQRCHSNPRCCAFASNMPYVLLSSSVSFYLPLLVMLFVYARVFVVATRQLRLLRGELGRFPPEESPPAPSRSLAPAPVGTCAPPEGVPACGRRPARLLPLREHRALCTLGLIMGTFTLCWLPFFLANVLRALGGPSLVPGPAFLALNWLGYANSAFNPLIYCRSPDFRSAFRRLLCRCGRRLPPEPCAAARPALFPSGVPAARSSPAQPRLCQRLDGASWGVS
# α1A, sequence (P35348 whole entry): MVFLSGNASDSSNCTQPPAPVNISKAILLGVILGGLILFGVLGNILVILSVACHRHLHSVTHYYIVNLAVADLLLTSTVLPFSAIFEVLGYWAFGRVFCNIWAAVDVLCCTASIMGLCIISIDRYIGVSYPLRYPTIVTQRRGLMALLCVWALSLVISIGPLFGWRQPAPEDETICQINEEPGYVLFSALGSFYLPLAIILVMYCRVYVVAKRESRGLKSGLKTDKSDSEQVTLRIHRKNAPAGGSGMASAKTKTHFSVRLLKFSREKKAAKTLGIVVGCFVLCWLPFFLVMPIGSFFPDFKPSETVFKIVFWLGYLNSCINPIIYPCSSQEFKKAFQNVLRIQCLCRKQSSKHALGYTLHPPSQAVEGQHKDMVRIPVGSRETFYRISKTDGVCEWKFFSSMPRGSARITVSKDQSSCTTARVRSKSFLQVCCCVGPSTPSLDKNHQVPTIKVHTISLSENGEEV
# β2, sequence (P07550 whole entry): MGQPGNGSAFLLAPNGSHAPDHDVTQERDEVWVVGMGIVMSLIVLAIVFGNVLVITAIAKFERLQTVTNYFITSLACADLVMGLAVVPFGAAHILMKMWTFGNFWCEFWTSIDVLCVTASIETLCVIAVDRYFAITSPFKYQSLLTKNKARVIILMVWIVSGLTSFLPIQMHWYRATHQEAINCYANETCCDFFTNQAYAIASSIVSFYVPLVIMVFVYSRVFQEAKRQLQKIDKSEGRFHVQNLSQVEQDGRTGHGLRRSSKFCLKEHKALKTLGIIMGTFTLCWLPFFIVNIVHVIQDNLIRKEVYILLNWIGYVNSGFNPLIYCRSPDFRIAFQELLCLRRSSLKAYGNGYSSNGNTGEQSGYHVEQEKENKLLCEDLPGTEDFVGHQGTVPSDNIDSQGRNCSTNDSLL
# 5-HT2B, sequence (P41595 whole entry): as the sequence (P41595 whole entry) above
smiles,measurement,setting,value
"COc1cccc([C@H](O)C2CCN(CCc3ccc(F)cc3)CC2)c1OC [M100,907, reference compound]","HTR induced by ALD-52 after M100,907 pretreatment",male C57BL/6J mice [1],blocked
"CCN(CC)C(=O)[C@@H]1C=C2c3cccc4[nH]cc(c34)C[C@H]2N(C)C1 [LSD, D-lysergic acid diethylamide, reference compound]",active doses,human subjects,0.5 to 1 µg/kg
same,Emax % 5-HT,human 5-HT2A (h5-HT2A),94 % 5-HT and 94 ± 1 % 5-HT
same,ED50 μg/kg (95% CI),male C57BL/6J mice [2]; [5],52.9 (38.9–72.0) μg/kg
same,ED50 nmol/kg (95% CI),male C57BL/6J mice [2]; [5],132.8 (97.6–180.7) nmol/kg
same,EC50,mouse 5-HT2A (m5-HT2A); Ca^2+ flux,4.25 nM
same,pEC50 ± SEM,mouse 5-HT2A (m5-HT2A); Ca^2+ flux,8.37 ± 0.10
same,Emax % 5-HT,mouse 5-HT2A (m5-HT2A),86 ± 3 % 5-HT
same,Emax % 5-HT,"human 5-HT2B (h5-HT2B); percent 5-HT maximum response, N.A. = No Activity",78 ± 2 % 5-HT
same,peak plasma level of LSD,"[3]; humans, intravenous 2 μg/kg LSD, ref Aghajanian and Bing (1964)",9.5 ng/mL
same,LSD in plasma,"[3]; participants who had ingested 200 μg, ref Dolder et al., 2016",4.5 ng/mL
"CCC(=O)n1cc2c3c(cccc31)C1=C[C@@H](C(=O)N(CC)CC)CN(C)[C@@H]1C2 [1P-LSD, 1-propanoyl-D-lysergic acid diethylamide]",Ki,human 5-HT2C receptor,13 ± 1.7 nM
same,EC50,"human 5-HT2A (h5-HT2A); EC50, nM",11 nM
same,EC50,human 5-HT2A (h5-HT2A); pEC50 ± SEM,10.2 nM
same,Emax % 5-HT,human 5-HT2A (h5-HT2A),11 % 5-HT and 11 ± 1 % 5-HT
same,Ki,human 5-HT2A receptor,196 ± 19 nM
same,agonist activity,"[4]; h5-HT2C, Ca^2+ flux",no agonist activity
same,ED50 μg/kg (95% CI),male C57BL/6J mice [2]; ref Brandt et al. (2016),158.9 (65.0–388.8) μg/kg
same,ED50 nmol/kg (95% CI),male C57BL/6J mice [2]; ref Brandt et al. (2016),349.6 (143.0–855.4) nmol/kg
same,Molar potency (relative to LSD),male C57BL/6J mice [2]; ref Brandt et al. (2016),one-third
same,Molar potency (relative to LSD),"male C57BL/6J mice [2]; ref Brandt et al. (2016), listed as 1-Propanoyl-LSD",0.38
same,Emax % 5-HT,mouse 5-HT2A (m5-HT2A),23 ± 1 % 5-HT
same,Ki,human 5-HT1A receptor,637 ± 97 nM
same,fold lower affinity than LSD for the 5-HT1A receptor,human 5-HT1A receptor,67 fold
same,agonist activity,human 5-HT2B (h5-HT2B),no agonist activity
"CCCC(=O)n1cc2c3c(cccc31)C1=C[C@@H](C(=O)N(CC)CC)CN(C)[C@@H]1C2 [1B-LSD, 1-butanoyl-D-lysergic acid diethylamide]",Ki,human 5-HT2C receptor,20.8 nM
same,Ki,β2,> 10 µM
same,Ki,5-HT1D,295 ± 77 nM
same,Ki,H2,842 ± 201 nM
same,Ki,α1B,> 10 µM
same,Ki,5-HT1B,1460 nM
same,Ki,H1,> 10 µM
same,Ki,α2B,2660 nM
same,Ki,5-HT2B,3.5 ± 0.6 nM
same,EC50,"human 5-HT2A (h5-HT2A); EC50, nM",85 nM
same,Emax % 5-HT,human 5-HT2A (h5-HT2A),23 % 5-HT and 23 ± 2 % 5-HT
same,Ki,α2A,537 ± 85 nM
same,HTR potency as percent of the (molar) potency of LSD,male C57BL/6J mice [1]; HTR in mice,~ 14%
same,Ki,5-HT6,607 ± 112 nM
same,Ki,5-HT7A,554 ± 158 nM
same,Ki,H4,> 10 µM
same,Ki,α1D,> 10 µM
same,Ki,β3,> 10 µM
same,Ki,human 5-HT2A receptor,87.7 ± 9.4 nM
same,Ki,H3,> 10 µM
same,Ki,5-HT5a,158 ± 42 nM
same,Ki,D1,1170 nM
same,Ki,β1,> 10 µM
same,Ki,D3,352 ± 64 nM
same,Ki,α2C,812 ± 267 nM
same,agonist activity,[4],no agonist activity
same,ED50 μg/kg (95% CI),male C57BL/6J mice [2]; ref Brandt et al. (2019),457.6 (334.9–625.5) μg/kg
same,ED50 nmol/kg (95% CI),male C57BL/6J mice [2]; ref Brandt et al. (2019),976.7 (714.8–1335) nmol/kg
same,Molar potency (relative to LSD),"male C57BL/6J mice [2]; ref Brandt et al. (2019), listed as 1-Butanoyl-LSD",0.14
same,EC50,"mouse 5-HT2A (m5-HT2A); EC50, nM, Ca^2+ flux",45 nM
same,Emax % 5-HT,mouse 5-HT2A (m5-HT2A),35 ± 2 % 5-HT
same,Ki,D4,2270 nM
same,Ki,α1A,> 10 µM
same,Ki,human 5-HT1A receptor,345 ± 118 nM
same,fold lower affinity than LSD for the 5-HT1A receptor,human 5-HT1A receptor,36 fold
same,Ki,D2,> 10 µM
same,agonist activity,human 5-HT2B (h5-HT2B),no agonist activity
same,Ki,D5,> 10 µM
"CCN(CC)C(=O)[C@@H]1C=C2c3cccc4c3c(cn4C(C)=O)C[C@H]2N(C)C1 [ALD-52, 1-Acetyl-D-lysergic acid diethylamide]",Ki,human 5-HT2C receptor,10.2 ± 3.5 nM
same,potency relative to LSD,human subjects; ref Abramson (1959),91%
same,potency relative to LSD,human subjects; ref Isbell et al. (1959),equipotent
same,active doses,human subjects,0.5 to 1 µg/kg
same,EC50,"human 5-HT2A (h5-HT2A); EC50, nM",38 nM
same,EC50,human 5-HT2A (h5-HT2A); pEC50 ± SEM,35.5 nM
same,Emax % 5-HT,human 5-HT2A (h5-HT2A),25 % 5-HT and 25 ± 2 % 5-HT
same,HTR Counts (mean ± SEM),male C57BL/6J mice [1]; 0.03 mg/kg IP,8.4 ± 1.6
same,HTR Counts (mean ± SEM),male C57BL/6J mice [1]; 0.1 mg/kg IP,12.6 ± 1.1
same,"HTR induced by ALD-52 after M100,907 pretreatment",male C57BL/6J mice [1],did not induce head twitches
same,HTR Counts (mean ± SEM),male C57BL/6J mice [1]; 0.3 mg/kg IP,25.4 ± 3.2
same,Molar potency (relative to LSD),male C57BL/6J mice [1]; HTR,0.45
same,ED50,male C57BL/6J mice [1]; read-out: ED50 nmol/kg (95% CI),297 nmol/kg
same,ED50,male C57BL/6J mice [1]; read-out: ED50 μg/kg (95% CI),131 µg/kg
same,induction of head twitches in mice,mice,does not induce head twitches
same,Ki,human 5-HT2A receptor,174 ± 43 nM
same,agonist activity,"[4]; h5-HT2C, Ca^2+ flux",no agonist activity
same,EC50,"mouse 5-HT2A (m5-HT2A); EC50, nM, Ca^2+ flux",12 nM
same,EC50,"mouse 5-HT2A (m5-HT2A); pEC50 ± SEM, Ca^2+ flux",11.5 nM
same,Emax % 5-HT,mouse 5-HT2A (m5-HT2A),29 ± 1 % 5-HT
same,Ki,human 5-HT1A receptor,1050 nM
same,fold lower affinity than LSD for the 5-HT1A receptor,human 5-HT1A receptor,111 fold
same,agonist activity,human 5-HT2B (h5-HT2B),no agonist activity
CC(C)n1cc2c3c(cccc31)[C@H]1C[C@@H](C(=O)NC3CCCCC3)CN(C)[C@@H]1C2 [amersergide],Ki,5-HT2A,16.2 nM
same,fold lower affinity than LY193525,5-HT2A; human 5-HT2A receptor,~ 20 fold
CN1C[C@H](C(=O)NC2CCCCC2)C[C@@H]2c3cccc4[nH]cc(c34)C[C@H]21 [LY193525],Ki,5-HT2A,0.73 nM
